Measurements as given in the METLIN SMRT retention time set (Domingo-Almenara et al. 2019).

Assay: gradient 5% acetonitrile 3 min, to 50% in 2 min, to 85% in 15 min, held 3 min, 100 µL/min
Details: column: Zorbax Extend-C18 2.1 x 50 mm; eluents: water / acetonitrile, 0.1% formic acid
Method in brief: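 In both positive and negative ionization mode, a quadrupole time-of-flight mass spectrometer coupled to HPLC analyzed pure standards run in mixtures of ~100 molecules. The Zorbax Extend-C18 column (2.1 × 50 mm, 1.8 μm) was operated at 100 μL/min with water and acetonitrile, each containing 0.1% formic acid. The dead volume was 40 μL and the dwell volume 900 μL. Retention time came from adduct peaks that were computationally picked and individually inspected by hand.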

RP-LC retention time [s]	Compound
1080	Cc1nc(-c2cc(S(=O)(=O)NCc3ccc(OC(C)C)cc3)c(C)s2)cs1
715	Cc1cccc(N2CCN(c3cc(C(=O)O)c4cc(NS(C)(=O)=O)ccc4n3)CC2)c1C
660	Cc1cnc(C2CC2)n1C1CCN(S(=O)(=O)c2ccc(C#N)cc2)CC1
746	Cc1onc(-c2ccccc2Cl)c1C(=O)NC1CC1
828	CCC(=O)N1CCc2ccccc2C1C(=O)NCc1cccc(Br)c1 (stereo unspecified)
1050	CSc1ccc(CCNC(=O)Cn2nc(-n3cccc3)c3c(C)cc(C)nc32)cc1
843	O=C(CN1C(=O)CCS(=O)(=O)c2ccccc21)Nc1ccc(C(F)(F)F)cc1
617	CCN(CC)CCNC(=O)c1cc(S(C)(=O)=O)ccc1OC
1070	CCCC1OC(c2cc3c(cc2Cl)OCO3)OCC1CC (stereo unspecified)
598	O=C(Nc1ccc(S(=O)(=O)N2CCCCC2)cc1)c1cc(-c2ccccc2)on1
1120	O=C(Nc1nc2c(s1)CCc1ccccc1-2)c1cccc(F)c1
966	CC1=NS(=O)(=O)N(C)C=C1C(=O)OCCC(C)C
1330	CCOc1cccc(-c2noc(Cn3ncn4nc(-c5ccc(C)cc5C)cc4c3=O)n2)c1
927	Cc1ccc(NC(=O)Cn2c(=O)n(-c3ccccc3)c(=O)c3c2cc(C)n3C)cc1Cl
730	Cc1ccc(-c2nnc(C)c(NCc3ccc4c(c3)OCO4)n2)cc1
974	O=C(COc1ccc(Cl)cc1)Nc1nc2ccc([N+](=O)[O-])cc2s1
1020	CCOc1ccccc1-c1nc(-c2cn(Cc3ccc(F)cc3)nn2)no1
1080	Cc1ccc(NC(=O)N2c3ccccc3CC2c2nc(C3CC3)no2)c(C)c1 (stereo unspecified)

RP-LC retention time [s]	Compound
1050	CCn1cc(C(=O)Nc2ccc(C)c(C)c2)c(S(=O)(=O)N2CCSCC2)n1
920	Cc1ccc(S(=O)(=O)[C@H]2CS(=O)(=O)C[C@@H]2N2CCN(c3ccccc3)CC2)cc1
610	CCCc1cc(N2CCN(C(=O)c3ccc(C#N)cc3)CC2)nc2nnc(C)n12
1080	O=S(=O)(Nc1ccc(F)cc1)c1cccnc1Nc1ccc(F)c(F)c1
594	CCC(=O)Nc1ccc2nc(N3CCN(CC(=O)Nc4c(C)cccc4C)CC3)cc(C(=O)O)c2c1
772	Cc1cc(Cl)ccc1S(=O)(=O)N(C)C1CCc2nn(CC3CC3)c(=O)n2CC1 (stereo unspecified)
581	CCN1CCN(c2nc(F)c3c(c2F)S(=O)(=O)CCN3CCOC)CC1
1090	Cc1cccc(Cn2ccc3ccn(CC(=O)N4CCOc5ccc(C)cc54)c(=O)c32)c1
960	CCSc1nnc(-c2nn(C)c3c2CN(S(=O)(=O)Cc2ccccc2Cl)CC3)n1CC
605	CC(C)c1nnc2n1CCN(C(=O)c1nccc3ccccc13)C2
837	O=C(c1c(OCC2CC2)cc(=O)n2c1CCCCC2)N1CCc2ccccc2C1
730	CS(=O)(=O)N1CCC(OC2CCN(C(=O)NCc3ccc(F)cc3)CC2)CC1
915	Cc1ccc(-c2nc3ncccn3c2Nc2cccc(Cl)c2C)cc1
810	O=C(NCCC1CCN(C(=O)Nc2cc(F)cc(F)c2)CC1)C1CCC1
789	COc1ccc2nc(-c3ccc(F)c(NC(=O)Nc4ccccc4C)c3)cn2n1
707	O=C(Cn1nc2c3ccccc3ncn2c1=O)NCCc1ccc(Cl)cc1
849	O=S(=O)(NCCc1noc(-c2ccccc2)n1)c1cccs1
743	CSc1cccc(NC(=O)N(C)CC2CCOCC2)c1
